In BigSolDB 2.1:

Nc1cc(Cl)nnc1Cl
Conditions	solubility (mole fraction)
in 1,4-dioxane, 289.15 K	0.00294
in 1,4-dioxane, 293.65 K	0.00365
in 1,4-dioxane, 298.15 K	0.00427
in 1,4-dioxane, 303.15 K	0.00556
in 1,4-dioxane, 308.15 K	0.0066
in 1,4-dioxane, 313.15 K	0.00811
in 1,4-dioxane, 318.15 K	0.00982
in 1,4-dioxane, 323.15 K	0.0121
in THF, 290.05 K	0.0443
in THF, 295.15 K	0.0484
in THF, 299.15 K	0.0517
in THF, 303.15 K	0.0556
in THF, 305.15 K	0.057
in THF, 308.15 K	0.0604
in THF, 313.65 K	0.0648
in THF, 318.15 K	0.0688
in THF, 323.15 K	0.0752
in acetone, 295.65 K	0.0244
in acetone, 298.15 K	0.0258
in acetone, 300.65 K	0.0276
in acetone, 303.15 K	0.0293
in acetone, 305.65 K	0.0311
in acetone, 308.15 K	0.0327
in acetone, 310.65 K	0.0342
in acetone, 313.15 K	0.036
in acetone, 315.65 K	0.0377
in acetone, 318.15 K	0.0393
in acetone, 320.65 K	0.041
in acetone, 323.15 K	0.0427
in dichloromethane, 295.15 K	7.41e-05
in dichloromethane, 297.15 K	0.000111
in dichloromethane, 299.15 K	0.000174
in dichloromethane, 301.15 K	0.000262
in dichloromethane, 303.15 K	0.000387
in dichloromethane, 305.15 K	0.000543
in dichloromethane, 307.15 K	0.000811
in dichloromethane, 309.15 K	0.00117
in ethyl acetate, 295.65 K	0.00111
in ethyl acetate, 298.15 K	0.00134
in ethyl acetate, 300.65 K	0.00159
in ethyl acetate, 303.15 K	0.00192
in ethyl acetate, 305.65 K	0.00235
in ethyl acetate, 308.15 K	0.00303
in ethyl acetate, 310.65 K	0.00371
in ethyl acetate, 313.15 K	0.0049
in ethyl acetate, 315.65 K	0.00577
in methanol, 295.65 K	0.0142
in methanol, 298.15 K	0.0153
in methanol, 300.65 K	0.0161
in methanol, 303.15 K	0.0169
in methanol, 305.65 K	0.0178
in methanol, 308.15 K	0.0189
in methanol, 310.65 K	0.0201
in methanol, 313.15 K	0.0214
in methanol, 315.65 K	0.0229
